In ChEMBL document CHEMBL4627246, “Pyroglutamide-Based P2X7 Receptor Antagonists Targeting Inflammatory Bowel Disease” (J Med Chem, 2020):

What was measured:
Type in all cases: cell-based
SK-MEL-5 = assay: Cytotoxicity against human SK-MEL-5 cells assessed as effect on cell growth at 10 uM incubated for 48 hrs by sulforhodamine B assay; details: sk-mel-5, 48 h
Hs-578T = assay: Cytotoxicity against human Hs 578T cells assessed as effect on cell growth at 10 uM incubated for 48 hrs by sulforhodamine B assay
NCI-H226 = assay: Cytotoxicity against human NCI-H226 cells assessed as effect on cell growth at 10 uM incubated for 48 hrs by sulforhodamine B assay; details: nci-h226, 48 h
HOP-92 = assay: Cytotoxicity against human HOP92 cells assessed as effect on cell growth at 10 uM incubated for 48 hrs by sulforhodamine B assay; details: hop-92, 48 h
786-0 = assay: Cytotoxicity against human 786-0 cells assessed as effect on cell growth at 10 uM incubated for 48 hrs by sulforhodamine B assay; details: 786-0, 48 h
U-251 = assay: Cytotoxicity against human U251 cells assessed as effect on cell growth at 10 uM incubated for 48 hrs by sulforhodamine B assay; details: u-251, 48 h
NCI/ADR-RES = assay: Cytotoxicity against human NCI/ADR-RES cells assessed as effect on cell growth at 10 uM incubated for 48 hrs by sulforhodamine B assay
NCI-H460 = assay: Cytotoxicity against human NCI-H460 cells assessed as effect on cell growth at 10 uM incubated for 48 hrs by sulforhodamine B assay; details: nci-h460, 48 h
Malme-3M = assay: Cytotoxicity against human MALME-3M cells assessed as effect on cell growth at 10 uM incubated for 48 hrs by sulforhodamine B assay
SF-268 = assay: Cytotoxicity against human SF268 cells assessed as effect on cell growth at 10 uM incubated for 48 hrs by sulforhodamine B assay; details: sf-268, 48 h
COLO 205 = assay: Cytotoxicity against human COLO205 cells assessed as effect on cell growth at 10 uM incubated for 48 hrs by sulforhodamine B assay; details: colo 205, 48 h
BT-549 = assay: Cytotoxicity against human BT549 cells assessed as effect on cell growth at 10 uM incubated for 48 hrs by sulforhodamine B assay; details: bt-549, 48 h
SNB-75 = assay: Cytotoxicity against human SNB75 cells assessed as effect on cell growth at 10 uM incubated for 48 hrs by sulforhodamine B assay; details: snb-75, 48 h
NCI-H522 = assay: Cytotoxicity against human NCI-H522 cells assessed as effect on cell growth at 10 uM incubated for 48 hrs by sulforhodamine B assay; details: nci-h522, 48 h
OVCAR-4 = assay: Cytotoxicity against human OVCAR4 cells assessed as effect on cell growth at 10 uM incubated for 48 hrs by sulforhodamine B assay; details: ovcar-4, 48 h
SF-295 = assay: Cytotoxicity against human SF295 cells assessed as effect on cell growth at 10 uM incubated for 48 hrs by sulforhodamine B assay; details: sf-295, 48 h
IGROV-1 = assay: Cytotoxicity against human IGROV1 cells assessed as effect on cell growth at 10 uM incubated for 48 hrs by sulforhodamine B assay; details: igrov-1, 48 h
HOP-62 = assay: Cytotoxicity against human HOP62 cells assessed as effect on cell growth at 10 uM incubated for 48 hrs by sulforhodamine B assay; details: hop-62, 48 h
SN12C = assay: Cytotoxicity against human SN12C cells assessed as effect on cell growth at 10 uM incubated for 48 hrs by sulforhodamine B assay
HCT-15 = assay: Cytotoxicity against human HCT15 cells assessed as effect on cell growth at 10 uM incubated for 48 hrs by sulforhodamine B assay; details: hct-15, 48 h

Measured: Activity

O=C(NCc1ccc(Cl)cc1Cl)[C@@H]1COC(=O)N1c1cccs1
Non-Toxic: SK-MEL-5 | Hs-578T | NCI-H226 | HOP-92 | 786-0 | U-251 | NCI/ADR-RES | NCI-H460 | Malme-3M | SF-268 | COLO 205 | BT-549 | SNB-75 | NCI-H522 | OVCAR-4 | SF-295 | IGROV-1 | HOP-62 | SN12C | HCT-15

O=C(NCC1CCCCC1)[C@@H]1CCC(=O)N1c1ccccc1
Non-Toxic: SK-MEL-5 | Hs-578T | NCI-H226 | HOP-92 | 786-0 | U-251 | NCI/ADR-RES | NCI-H460 | Malme-3M | SF-268 | COLO 205 | BT-549 | SNB-75 | NCI-H522 | OVCAR-4 | SF-295 | IGROV-1 | HOP-62 | SN12C | HCT-15

COc1cc(CN/C=C2\C[C@@H](C(=O)NCc3ccc(Cl)cc3Cl)NC2=O)cc(OC)c1OC
Non-Toxic: SK-MEL-5 | Hs-578T | NCI-H226 | HOP-92 | 786-0 | U-251 | NCI/ADR-RES | NCI-H460 | Malme-3M | SF-268 | COLO 205 | BT-549 | SNB-75 | NCI-H522 | OVCAR-4 | SF-295 | IGROV-1 | HOP-62 | SN12C | HCT-15

O=C(NCc1ccc(Cl)cc1Cl)c1ccccn1
Non-Toxic: SK-MEL-5 | Hs-578T | NCI-H226 | HOP-92 | 786-0 | U-251 | NCI/ADR-RES | NCI-H460 | Malme-3M | SF-268 | COLO 205 | BT-549 | SNB-75 | NCI-H522 | OVCAR-4 | SF-295 | IGROV-1 | HOP-62 | SN12C | HCT-15

O=C(NCc1ccccc1Cl)[C@@H]1CCC(=O)N1Cc1ccc(Cl)cc1
Non-Toxic: SK-MEL-5 | Hs-578T | NCI-H226 | HOP-92 | 786-0 | U-251 | NCI/ADR-RES | NCI-H460 | Malme-3M | SF-268 | COLO 205 | BT-549 | SNB-75 | NCI-H522 | OVCAR-4 | SF-295 | IGROV-1 | HOP-62 | SN12C | HCT-15

COc1ccccc1CN1C(=O)[C@@H]2C/C(=C\N(C)C)C(=O)N2C1N(C)C (stereo not given in full)
Non-Toxic: SK-MEL-5 | Hs-578T | NCI-H226 | HOP-92 | 786-0 | U-251 | NCI/ADR-RES | NCI-H460 | Malme-3M | SF-268 | COLO 205 | BT-549 | SNB-75 | NCI-H522 | OVCAR-4 | SF-295 | IGROV-1 | HOP-62 | SN12C | HCT-15

N#Cc1ccc(N2C(=O)CC[C@H]2C(=O)NCc2ccc(Cl)cc2Cl)cc1
Non-Toxic: SK-MEL-5 | Hs-578T | NCI-H226 | HOP-92 | 786-0 | U-251 | NCI/ADR-RES | NCI-H460 | Malme-3M | SF-268 | COLO 205 | BT-549 | SNB-75 | NCI-H522 | OVCAR-4 | SF-295 | IGROV-1 | HOP-62 | SN12C | HCT-15
